Results reported in PubChem BioAssay AID2305 (GlaxoSmithKline (GSK), 2010).

Test system: P. falciparum 3D7 growth, pLDH absorbance
Experiment: blood-stage malaria parasite growth potency – strain 3D7, dose response (AID 2305)

Structure (SMILES)	IC50
COc1ccc(Nc2nc(NC3CCN(C)CC3)cc(-c3ccc(OC)cc3)n2)cc1	540 nM
CCCc1cc2c3c(N)nc(N)nc3ccc2n1CC	50 nM
Cc1[nH]c2c(c(=O)c1Cl)-c1ccc(Oc3cccc(C(F)(F)F)c3)cc1C2=O	40 nM
Cc1ccc(O)cc1Nc1ccnc2cc(-c3csc(CNCCN4CCOCC4)n3)ccc12	880 nM
COCCn1c(C)cc(C(=O)CN2C(=O)NC(C)(c3ccc(C(C)(C)C)cc3)C2=O)c1C (stereo not drawn)	470 nM
O=C(NCc1ccc(Cl)c(Cl)c1)c1ccc(-c2nc3ccc(Cl)cc3[nH]2)cc1	900 nM
Cc1cc(Nc2ccc(Cl)c(Cl)c2)n2nc(C)nc2n1	260 nM
CN1CCN(Cc2cc3cc(NC(=O)/C=C/c4cccc(Cl)c4)ccc3s2)CC1	270 nM
CNc1c2c(nc3ccc(NC(=O)CCCCCCc4ccccc4)cc13)CCCC2	920 nM
CN(CC(=O)Nc1ccc(F)c(F)c1F)c1ncnc2sc(-c3ccccc3)cc12	870 nM
Nc1c2c(nc3ccc(Oc4ccc(Cl)cc4)cc13)CCCC2	970 nM
COc1ccc(C(=O)NC2CCN(c3ccnc4cc(Cl)ccc34)C2)cc1 (stereo not drawn)	230 nM
CCCCNc1nc(NCCCC)c2c(C)c(Cc3ccccc3)c(NCCCC)nc2n1	890 nM
O=C(N[C@H]1CCN(Cc2ccc(OC3CCN(Cc4ccccc4)CC3)c(Cl)c2)C1)c1ccc(Cl)c(Cl)c1	810 nM
Oc1ccc2c(CNCCc3ccccc3)c(O)ccc2c1CNCCc1ccccc1	100 nM
CCN(C(=O)c1ccc(NC(=O)c2cccs2)cc1)c1nc2c(C)cccc2s1	850 nM
O=C(Nc1ccc(OC2CCN(Cc3ccsc3)C2)c(Cl)c1)c1cccs1 (stereo not drawn)	960 nM
Oc1ccc(CN2CCN(CCOC(c3ccccc3)c3ccc(Cl)cc3)CC2)cc1Cl (stereo not drawn)	860 nM
Brc1ccsc1-c1nc(NCCC(c2ccccc2)c2ccccc2)no1	1080 nM
CCOC(=O)N[C@@H]1CN[C@@H](C#Cc2cc3c(Nc4ccc(OCc5cccc(F)c5)c(Cl)c4)ncnc3s2)C1	1080 nM
COc1cccc2c(NN=Cc3ccc([N+](=O)[O-])cc3)ccnc12	890 nM
COc1ccc(NC(=O)Nc2ccc(Nc3nc(C)cc(N4CCCC4)n3)cc2)cc1	140 nM
COCCNCc1cccc(-c2cccc(CNC3CCN(Cc4ccccc4)CC3)c2)c1	280 nM
NC(=NCCc1ccc(Cl)cc1)c1ccc(Cl)c(Cl)c1	1100 nM
COc1ccc2c(NN=Cc3ccc(F)cc3)ccnc2c1	440 nM

Structure (SMILES)	IC50
CN(c1cc(NC(=O)c2ccccc2)ccn1)C1CCN(Cc2cccc(F)c2)CC1	740 nM
Cc1cc(-c2nc3ccc(CN4CCN(C)CC4)cc3[nH]2)nn1Cc1cc(Cl)ccc1OCc1ccccc1	1120 nM
CCN(CC)C(=NCCCCCCN=C(/N=C(/N)Nc1ccc(C)cc1)N(CC)CC)/N=C(/N)Nc1ccc(C)cc1	540 nM
COC(=O)C(NC(=O)c1ccc(-c2ccc(-c3nc4ccccc4[nH]3)s2)cc1)c1ccc(O)cc1 (stereo not drawn)	740 nM
Cc1nc(NCCCn2ccnc2)cc(-c2cncc(-c3ccc(OC(F)(F)F)cc3)c2)n1	620 nM
N=c1n(Cc2ccc(Cl)cc2)c2ccccc2n1CC(O)c1ccc(Cl)c(Cl)c1 (stereo not drawn)	680 nM
CC(C)CNCc1ccc(-c2ccc(CN(CCCN3CCN(C)CC3)C(=O)/C=C/c3ccccc3)cc2)cc1	920 nM
O=C(NCCN1CCCC1)c1cccc(-c2ccc(-c3nc4ccccc4[nH]3)cc2)c1	920 nM
Cc1c(C(=O)N2CCCC(C(F)(F)F)C2)sc2cccc(F)c12 (stereo not drawn)	600 nM
COc1cccc(-c2ccc3c(-c4ccc(F)cc4)cnc(N)c3c2)c1	810 nM
CC(C)c1cn2c3c(cc(C(=O)N[C@@H](Cc4ccccc4)[C@H](O)CNC4CCCCC4)cc13)N(C)S(=O)(=O)CC2	30 nM
O=C(Nc1ccc(OC2CCN(Cc3ccccc3)C2)c(Cl)c1)c1cccs1 (stereo not drawn)	390 nM
O=C(/C=C/c1ccc(Cl)c(Cl)c1)N1CCC(CN2CCC(c3c[nH]c4ccncc34)CC2)CC1	730 nM
CCN(CCCN1CCCCC1)c1cc(C)nc(Nc2ccc(C)cc2C(F)(F)F)n1	540 nM
Cc1cc(C(F)(F)F)cc(-n2ncc(-c3ccc(C(=O)NCCNCc4ccccc4)cc3)c2N)n1	1070 nM
Cc1nnc(-c2cccc(Nc3ccnc4cc(-c5nccs5)ccc34)c2)o1	630 nM
CCOC(=O)[C@H](Cc1cccc2ccccc12)NC(=O)[C@H](CCC(=O)OC(C)(C)C)NC(=O)c1ccc(N(C)Cc2cnc3nc(N)nc(N)c3n2)cc1	660 nM
COc1cc(NC(=O)/C=C/c2cc(F)cc(F)c2F)cc(OCCN2CCC3(CC2)OCCO3)c1	270 nM
CCOC(=O)c1ccc(NC(=O)Nc2cccc(-c3ccc(-c4nc5c(C)cccc5[nH]4)s3)c2)cc1	140 nM
C[C@H](Cc1ccc(OCCCCCCOc2ccc(C[C@@H](C)N[C@H](C)c3ccccc3)cc2)cc1)NC[C@H](O)c1cccc(Cl)c1	240 nM
CC(C)(C)c1ccc(CN2CCC(CNC(=O)c3cc(-c4ccccc4)nc4ccccc34)CC2)cc1	1020 nM
CCN(CC)C(=O)C1CCN(C(C(=O)N2CCN(CC(=O)N3CCCC3)CC2)c2cc3ccccc3o2)CC1 (stereo not drawn)	710 nM
Cc1ccc(C)c(S(=O)(=O)Nc2ccc(Br)cc2C(=O)Nc2cccc(C(F)(F)F)c2)c1	1210 nM
CN(C)Cc1cccc(-c2ccc3ccnc(N)c3c2)c1	120 nM
CN(C)CCNCc1ccc(-c2ccc(-c3nc4ccc(F)cc4[nH]3)cc2)cc1	470 nM

Structure (SMILES)	IC50
Cc1cc(N[C@@H](Cc2ccccc2)C(=O)NCc2cccs2)nc(NCCc2ccc(F)cc2)n1	850 nM
COc1ccc2[nH]cc(C3=CCN(C[C@H]4C[C@@H]4C(=O)c4ccccc4)CC3)c2n1	270 nM
CN(C)CCNC(=O)N1CCCN(c2ncnc3cc(-c4ccc(Cl)cc4)sc23)CC1	1020 nM
COc1ccc(Cn2c(Nc3cccc(C(F)(F)F)c3)nc3cc(C(=O)NC4CC4)cnc32)cc1Cl	730 nM
O=C(O)c1ccc2nc(-c3ccccn3)c(-c3ccccn3)nc2c1	220 nM
COc1ccc(Cn2c(N3CCN(S(=O)(=O)c4ccc(OC)cc4)CC3)nc3c2c(=O)n(CC2CC2)c(=O)n3CC2CC2)cc1	890 nM
Cc1cc(=O)c(-c2ccc(Oc3ccc(C(F)(F)F)cc3)cc2)c(C)n1O	600 nM
CN1C[C@@H](c2ccccc2)c2cc(O)c(CN3CCCCC3)cc2C[C@H]1Cc1ccccc1	180 nM
CCCCCCN1CCC(NCc2cccc(-n3ccnc3)c2)CC1	250 nM
Oc1cccc(Nc2nc(NCc3ccccc3)c3ccccc3n2)c1	40 nM
CCOc1c(OC)ccc2c1CCN(CCN1CCC(CNC(=O)c3ccc(-c4ccc(C#N)cc4)cc3)CC1)C2	1080 nM
Oc1ccccc1CNCC(O)c1cccc(C(F)(F)F)c1 (stereo not drawn)	530 nM
CO/C(=C\C=C\c1cc2cc(Cl)c(Cl)cc2[nH]1)C(=O)NCCCN1CCCC[C@@H]1C	750 nM
COc1ccc(C(=O)Nc2ccc(-c3ccc([N+](=O)[O-])cc3)cc2)cc1CCCN(C)C	800 nM
CC(C)(C)OC(=O)N[C@@H](CS(=O)(=O)CCN=C(N)COCc1ccccc1)C(=O)OC(C)(C)C	820 nM
Cc1cc(NN=Cc2ccccc2Cl)c2cc(F)ccc2n1	750 nM
CC(=O)Nc1ccc(OCCN(CC(C)(C)C)c2ccc(C#N)c(C(F)(F)F)c2)c(Cl)c1	490 nM
COc1cc(-c2cc3cc(Cl)c(Cl)cc3[nH]2)ccc1C(=O)NC1CCN(Cc2ccccc2)CC1	530 nM
Cc1[nH]c(C)c(-c2cccc(-c3ccc(OC(F)(F)F)cc3)c2)c(=O)c1Br	410 nM
COc1ccccc1CNCC(O)c1cc(C(F)(F)F)ccc1C(F)(F)F (stereo not drawn)	940 nM
O=C(/C=C/c1ccc(Cl)c(Cl)c1)NC1CCC(CN2CCC(c3c[nH]c4ccccc34)CC2)CC1 (stereo not drawn)	230 nM
CCOc1ccc2nc3cc(NC(=O)c4ccco4)ccc3c(N)c2c1	800 nM
CCCC(C)Nc1nc(C)cc(N[C@@H](Cc2ccccc2)C(=O)NCCc2ccccc2)n1 (stereo partly drawn)	950 nM
CN1C(C)(C)CC(NC(=O)c2ccc(-c3cc4cc(Cl)c(Cl)cc4[nH]3)o2)CC1(C)C	1120 nM
NC1CCN(Cc2ccc(-c3cccc(-c4nc5ccc(F)cc5[nH]4)c3)cc2)C1 (stereo not drawn)	760 nM

Structure (SMILES)	IC50
Cc1cccc2[nH]c(-c3cc(-c4cn[nH]c4)cnc3N)nc12	220 nM
Cc1cccc2[nH]c(-c3cccc(-c4cccc(NC(=O)C(C)CN(C)C)c4)c3)nc12 (stereo not drawn)	410 nM
CN(CC(=O)Nc1cc(C(F)(F)F)ccc1-n1cncn1)Cc1nc2ccccc2s1	1410 nM
CN1CCC(NCc2cccc(-c3cccc(S(=O)(=O)NCc4ccccc4)c3)c2)CC1	750 nM
O=C(NCCNc1ccnc(Nc2ccc(F)cc2)n1)Nc1ccc2c(c1)OCO2	680 nM
CN(CCS(C)(=O)=O)Cc1ccc(-c2ccc3ncnc(Nc4ccc(OCc5cccc(F)c5)c(Cl)c4)c3c2)o1	680 nM
NCCNS(=O)(=O)c1ccc(-c2ccnc3[nH]c(-c4ccncc4)cc23)cc1	840 nM
OC(CNCc1cccc(Oc2ccc(Cl)cc2)c1)c1cccc(C(F)(F)F)c1 (stereo not drawn)	970 nM
Cc1cccc2[nH]c(-c3cccc(-c4cccc(CNCCN5CCNCC5)c4)c3)nc12	970 nM
N#Cc1ccc(-c2ccc(C(=O)NCCCCN3CCC(c4ccncc4)CC3)cc2)cc1	810 nM
O=c1[nH]c(Cc2ccccc2)nc2ccc(Cl)cc12	880 nM
Cc1sc(N2CCN(C)CC2)nc1C(=O)Nc1ccc(F)cc1C(F)(F)F	1070 nM
CCN(CC)S(=O)(=O)c1ccc(C(=O)Oc2ccccc2N(Cc2ccc(OC)cc2)C2=NS(=O)(=O)c3ccccc32)cc1	580 nM
Oc1ccccc1CN1CCC2(CCCN(Cc3ccccc3F)C2)C1 (stereo not drawn)	680 nM
O=C(NC1CCC(CN2CCC(c3c[nH]c4ccccc34)CC2)CC1)c1cn(Cc2ccccc2)c2ccccc12 (stereo not drawn)	1130 nM
CCc1cc2c3c(N)nc(N)nc3ccc2n1C(C)(C)C	10 nM
COc1c(C)cc(I)cc1CNCCCNc1cc(=O)c2ccccc2[nH]1	1280 nM
CC(C)n1ncc2c(C(=O)N3CCCC4CCCCC43)cc(C3CC3)nc21 (stereo not drawn)	680 nM
COc1cc2c(cc1OC)C(C)(C)CN1Cc3c(c(CO)c(OC)c(OC)c3OC)CC21 (stereo not drawn)	780 nM
Cc1cc(NC(=O)NCCN2CCC(NC(=O)c3ccc(C(F)(F)F)cc3)CC2)c2ccccc2n1	410 nM
COc1ccc(OCC(O)CN(Cc2ccccc2OC)C(=O)Nc2ccc(Br)cc2)cc1 (stereo not drawn)	750 nM
O=C(Nc1cccc(CN2CCN(Cc3cccc(O)c3)CC2)c1)c1ccc(Cl)c(Cl)c1	410 nM
CCN1CCC(N(Cc2ccc(-c3ccc(C(F)(F)F)cc3)cc2)C(=O)Cn2nc(C)c(=O)cc2SCc2ccc(F)cc2)CC1	1010 nM
